# Results reported in ChEMBL document CHEMBL1201862, “PubChem BioAssay data set” (2004).
# Activity calls are given as the source filed them.
# What was measured:
# CHO = experiment: cytotoxicity in TLR9-MyD88 CHO cells, dose response, cytotoxicity control for TLR9-MyD88 binding inhibitor project, cell-based, luminescence (AID 588339); format: functional, hamster; conditions: Cricetulus griseus;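 further: CHO cells stably coexpressing TLR9 and MyD88 fusions from primary screen; compound exposure lasted 48 hours before viability readout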
# [1] = inhibitors of intracellular T. cruzi replication, confirmation, NIH3T3 host cells, beta-gal luminescence (AID 2044); format: functional, cell-based;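 further: intracellular parasites grown in NIH/3T3 mouse fibroblasts as host cells; luminescent beta-galactosidase reporter signal from transgenic T. cruzi replicating inside host cells; inhibitors lower the luminescence signal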
# [2] = Fluorescence-based cell-based high throughput dose response assay for inhibitors of the interaction of nucleotide-binding oligomerization domain containing 2 (NOD2) and the receptor-interacting serine-threonine kinase 2 (RIPK2).; format: functional, Homo sapiens; conditions: Homo sapiens
# Ion channel NompC = Ion channel NompC (Danio rerio, UniProt Q7T1G6); experiment: Fluorescence counterscreen assay for TRPML3 agonists: dose response cell-based high-throughput screening assay to identify agonists of the transient receptor potential channel N1 (TRPN1). [Related pubchem assays: 1526, 1424, 1448 ]; format: functional
# Sequence of Ion channel NompC (Q7T1G6 whole entry): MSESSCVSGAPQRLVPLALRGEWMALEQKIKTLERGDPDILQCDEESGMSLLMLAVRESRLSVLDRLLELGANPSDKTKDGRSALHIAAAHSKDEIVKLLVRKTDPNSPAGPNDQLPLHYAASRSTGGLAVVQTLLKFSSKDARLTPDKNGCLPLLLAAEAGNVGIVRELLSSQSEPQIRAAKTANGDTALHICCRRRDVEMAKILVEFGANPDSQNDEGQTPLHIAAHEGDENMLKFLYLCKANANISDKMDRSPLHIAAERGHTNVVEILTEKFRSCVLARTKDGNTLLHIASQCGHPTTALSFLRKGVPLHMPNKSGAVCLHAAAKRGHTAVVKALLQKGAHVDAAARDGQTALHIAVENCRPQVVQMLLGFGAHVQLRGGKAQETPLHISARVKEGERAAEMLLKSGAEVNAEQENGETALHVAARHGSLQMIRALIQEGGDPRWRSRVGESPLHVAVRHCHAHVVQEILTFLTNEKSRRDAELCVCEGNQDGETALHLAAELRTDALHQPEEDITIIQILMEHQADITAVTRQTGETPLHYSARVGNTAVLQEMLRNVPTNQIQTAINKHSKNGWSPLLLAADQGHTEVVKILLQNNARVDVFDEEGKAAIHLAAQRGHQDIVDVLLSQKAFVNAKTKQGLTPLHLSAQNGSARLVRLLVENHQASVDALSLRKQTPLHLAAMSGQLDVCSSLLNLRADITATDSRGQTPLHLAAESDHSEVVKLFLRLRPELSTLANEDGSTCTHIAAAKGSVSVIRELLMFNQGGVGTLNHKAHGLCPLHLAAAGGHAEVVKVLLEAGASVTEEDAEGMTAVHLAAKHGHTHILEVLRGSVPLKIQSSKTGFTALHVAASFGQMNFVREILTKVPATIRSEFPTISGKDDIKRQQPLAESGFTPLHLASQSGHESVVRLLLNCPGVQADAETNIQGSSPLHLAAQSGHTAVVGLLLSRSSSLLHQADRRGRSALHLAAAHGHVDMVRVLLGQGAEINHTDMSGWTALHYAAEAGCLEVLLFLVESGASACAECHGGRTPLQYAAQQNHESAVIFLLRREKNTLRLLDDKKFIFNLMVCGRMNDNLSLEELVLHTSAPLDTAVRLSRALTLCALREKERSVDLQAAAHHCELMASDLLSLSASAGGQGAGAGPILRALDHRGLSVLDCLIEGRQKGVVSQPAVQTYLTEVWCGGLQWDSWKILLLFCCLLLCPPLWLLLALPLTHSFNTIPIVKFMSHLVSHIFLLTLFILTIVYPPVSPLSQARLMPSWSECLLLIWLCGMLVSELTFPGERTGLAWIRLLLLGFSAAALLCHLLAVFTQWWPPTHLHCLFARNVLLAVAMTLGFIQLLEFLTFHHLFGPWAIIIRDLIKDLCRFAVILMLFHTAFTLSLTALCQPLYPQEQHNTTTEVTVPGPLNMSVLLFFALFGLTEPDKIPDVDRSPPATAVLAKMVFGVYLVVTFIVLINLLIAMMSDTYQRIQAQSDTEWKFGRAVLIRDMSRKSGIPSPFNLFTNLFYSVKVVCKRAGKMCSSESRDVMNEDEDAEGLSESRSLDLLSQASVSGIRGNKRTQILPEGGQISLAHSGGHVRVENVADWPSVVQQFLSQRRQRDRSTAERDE
# Mucolipin-3 = Mucolipin-3 (Homo sapiens, UniProt Q8TDD5); experiment: Dose response cell-based high-throughput screening assay for agonists of the transient receptor potential channel ML3 (TRPML3). [Related pubchem assays: 1526, 1424, 1448 ]; format: functional
# Sequence of Mucolipin-3 (Q8TDD5 whole entry): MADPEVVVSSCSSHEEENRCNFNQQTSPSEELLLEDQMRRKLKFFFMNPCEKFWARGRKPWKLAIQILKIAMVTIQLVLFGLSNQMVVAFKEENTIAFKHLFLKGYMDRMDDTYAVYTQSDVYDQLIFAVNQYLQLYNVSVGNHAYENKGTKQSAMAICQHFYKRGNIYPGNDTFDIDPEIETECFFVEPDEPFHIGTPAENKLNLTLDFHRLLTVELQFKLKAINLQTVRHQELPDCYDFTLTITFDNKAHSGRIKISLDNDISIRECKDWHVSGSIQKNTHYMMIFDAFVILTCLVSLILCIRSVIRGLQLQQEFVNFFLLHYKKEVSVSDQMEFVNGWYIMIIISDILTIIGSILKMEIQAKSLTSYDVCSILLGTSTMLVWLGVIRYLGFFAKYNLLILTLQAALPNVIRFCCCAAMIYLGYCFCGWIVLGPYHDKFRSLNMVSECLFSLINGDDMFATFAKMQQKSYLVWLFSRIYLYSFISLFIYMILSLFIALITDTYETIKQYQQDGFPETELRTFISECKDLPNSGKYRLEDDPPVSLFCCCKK
# [3] = cytotoxicity toward NIH3T3 fibroblasts, dose response, counter-screen, cell-based, ATP luminescence, mouse fibroblasts (AID 2010); format: functional;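 further: cells exposed to compound for about 90 hours before reading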
# Paired box protein Pax-8 = Paired box protein Pax-8 (Homo sapiens, UniProt Q06710); experiment: inhibitors of PAX8-driven TPO luciferase reporter, dose response, RMG-I cells, cherry-pick (AID 687027); format: functional, cell-based;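 further: luciferase reporter driven by Pax8 target thyroperoxidase promoter measured by SteadyGlo luminescence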
# Sequence of Paired box protein Pax-8 (Q06710 whole entry): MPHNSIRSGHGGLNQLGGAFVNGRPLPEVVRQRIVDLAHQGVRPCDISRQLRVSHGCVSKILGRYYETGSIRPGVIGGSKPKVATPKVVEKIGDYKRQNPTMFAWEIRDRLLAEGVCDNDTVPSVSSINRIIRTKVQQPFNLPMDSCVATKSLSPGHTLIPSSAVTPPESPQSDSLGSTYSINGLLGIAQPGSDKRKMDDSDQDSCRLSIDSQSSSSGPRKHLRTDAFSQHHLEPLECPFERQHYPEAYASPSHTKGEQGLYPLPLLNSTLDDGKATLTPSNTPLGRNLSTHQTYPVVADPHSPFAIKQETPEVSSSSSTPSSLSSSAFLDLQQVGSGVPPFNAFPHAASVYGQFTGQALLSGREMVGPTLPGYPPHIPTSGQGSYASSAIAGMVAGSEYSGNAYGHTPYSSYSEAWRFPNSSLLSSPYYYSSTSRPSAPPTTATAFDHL
# [4] = biological target: Beta-2 adrenergic receptor (Homo sapiens, UniProt P07550); experiment: beta2AR agonists driving receptor internalization, dose response, cell-based, FAP fluorogen, flow cytometry, cherry pick 1 (AID 588763); format: functional
# Sequence of Beta-2 adrenergic receptor (P07550 whole entry): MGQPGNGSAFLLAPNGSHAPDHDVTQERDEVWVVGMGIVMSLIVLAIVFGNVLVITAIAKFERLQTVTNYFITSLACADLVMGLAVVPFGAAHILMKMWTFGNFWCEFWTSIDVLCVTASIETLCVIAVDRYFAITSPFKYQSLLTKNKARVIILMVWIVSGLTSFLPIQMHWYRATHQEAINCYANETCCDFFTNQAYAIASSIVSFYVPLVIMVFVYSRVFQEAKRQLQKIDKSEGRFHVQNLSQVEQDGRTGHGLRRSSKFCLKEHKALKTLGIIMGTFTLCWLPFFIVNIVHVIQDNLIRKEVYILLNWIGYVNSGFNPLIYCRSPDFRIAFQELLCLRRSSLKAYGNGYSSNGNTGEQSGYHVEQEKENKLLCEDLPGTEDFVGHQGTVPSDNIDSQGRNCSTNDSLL
# [5] = biological target: T1, Mannose-6-phosphate isomerase (Homo sapiens, UniProt P34949); experiment: human PMI inhibitors, high substrate, primary screen, biochemical, fluorescence intensity, high mannose 6-phosphate (AID 1220)
# T1 sequence (P34949 whole entry): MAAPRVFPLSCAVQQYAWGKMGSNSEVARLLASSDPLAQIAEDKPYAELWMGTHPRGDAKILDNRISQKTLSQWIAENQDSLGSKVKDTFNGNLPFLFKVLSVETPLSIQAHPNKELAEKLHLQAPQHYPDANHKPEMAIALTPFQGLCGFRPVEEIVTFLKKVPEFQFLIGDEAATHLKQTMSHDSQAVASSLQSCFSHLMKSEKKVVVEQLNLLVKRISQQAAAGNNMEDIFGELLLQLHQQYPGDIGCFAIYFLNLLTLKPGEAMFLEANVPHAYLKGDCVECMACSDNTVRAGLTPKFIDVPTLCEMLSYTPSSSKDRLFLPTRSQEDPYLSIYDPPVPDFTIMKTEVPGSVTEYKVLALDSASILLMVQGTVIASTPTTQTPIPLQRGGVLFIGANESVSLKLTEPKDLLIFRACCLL
# Insulin-degrading enzyme [6] = biological target: T2, Insulin-degrading enzyme (Homo sapiens, UniProt P14735); experiment: activators of endogenous IDE in HEK cells, dose response, cell-based, fluorescence polarization (AID 588439); format: functional
# T2 sequence (P14735 whole entry): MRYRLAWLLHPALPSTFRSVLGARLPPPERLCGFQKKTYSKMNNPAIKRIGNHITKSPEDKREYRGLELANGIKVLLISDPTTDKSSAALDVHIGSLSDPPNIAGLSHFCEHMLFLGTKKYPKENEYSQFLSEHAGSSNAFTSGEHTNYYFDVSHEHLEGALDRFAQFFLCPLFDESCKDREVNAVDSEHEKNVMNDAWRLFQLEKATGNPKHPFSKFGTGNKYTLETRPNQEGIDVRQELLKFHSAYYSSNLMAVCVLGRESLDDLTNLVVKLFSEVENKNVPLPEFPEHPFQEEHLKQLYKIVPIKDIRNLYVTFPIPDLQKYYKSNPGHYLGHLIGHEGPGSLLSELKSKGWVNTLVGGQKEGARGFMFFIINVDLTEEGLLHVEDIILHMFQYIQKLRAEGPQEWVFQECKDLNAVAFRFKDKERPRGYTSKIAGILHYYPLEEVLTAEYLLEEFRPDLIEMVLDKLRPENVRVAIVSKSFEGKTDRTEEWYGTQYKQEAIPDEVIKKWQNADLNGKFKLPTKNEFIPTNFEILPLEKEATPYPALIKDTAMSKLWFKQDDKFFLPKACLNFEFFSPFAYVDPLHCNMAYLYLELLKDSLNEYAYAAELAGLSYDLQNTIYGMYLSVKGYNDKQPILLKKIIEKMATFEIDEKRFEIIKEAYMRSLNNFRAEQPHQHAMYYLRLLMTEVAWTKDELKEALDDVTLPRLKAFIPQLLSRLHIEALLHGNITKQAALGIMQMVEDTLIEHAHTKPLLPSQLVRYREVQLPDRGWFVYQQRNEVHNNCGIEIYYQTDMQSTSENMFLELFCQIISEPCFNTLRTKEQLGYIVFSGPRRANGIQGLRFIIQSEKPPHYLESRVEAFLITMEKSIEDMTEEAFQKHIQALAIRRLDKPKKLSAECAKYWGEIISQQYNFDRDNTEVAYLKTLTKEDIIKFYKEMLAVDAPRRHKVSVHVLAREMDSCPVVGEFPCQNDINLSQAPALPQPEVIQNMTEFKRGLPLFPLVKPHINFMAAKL
# Insulin-degrading enzyme [7] = biological target: T2, Insulin-degrading enzyme; experiment: activators of recombinant IDE enzyme, dose response, counter-screen for IDE activator project, biochemical, fluorescence polarization (AID 588681)
# HEK293 [8] = experiment: HEK cell cytotoxicity by LDH release, dose response, cytotoxicity control for IDE activator project, fluorescence, HEK cells (AID 588440); format: functional, cell-based; conditions: Homo sapiens;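 further: cytotoxicity by LDH release measuring loss of membrane integrity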
# HEK293 [9] = experiment: optical interference in Abeta FP readout, dose response, artefact control for IDE activator project, biochemical, fluorescence polarization (AID 588442); format: functional, cell-based; conditions: Homo sapiens
smiles,measurement,setting,value
O=c1c(Cl)c(Cl)cnn1Cc1nnc(-c2ccccc2Br)o1,IC50,CHO,1.81 µM (active)
same,EC50,[1],2.03 µM (active)
same,IC50,[2],7.65 µM (active)
same,EC50,Ion channel NompC,11.3 µM (not active)
same,EC50,Mucolipin-3,3.15 µM (active)
same,EC50,[3],2.51 µM (active)
same,AC50,Paired box protein Pax-8,7.63 µM (active)
CN(Cc1cccs1)c1nc(-c2cccnc2)nc2ccccc12,EC50,[4],1.26 µM (active)
O=c1oc2cc(O)ccc2cc1-c1nc2c(s1)CCc1ccccc1-2,IC50,[5],> 50 µM (not active)
same,EC50,Insulin-degrading enzyme [6],> 54.7 µM (inactive)
same,EC50,Insulin-degrading enzyme [7],> 54.7 µM (inactive)
same,IC50,HEK293 [8],> 89.2 µM (inactive)
same,EC50,HEK293 [9],4.6 µM (active)
